Series [1] has as its target CDK2 (p33^cdk2, cyclin E) (Homo sapiens, UniProt P24941). In words: CDK inhibition assay, p33^cdk2 kinase, histone H1 phosphorylation.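 Note: Baculovirus-expressed kinase/cyclin complex from Sf9 cell extract, 10 min at 30 °C, phosphoproteins separated by SDS gel and quantified by image analysis, activity relative to DMSO control.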
Description: Cyclin-dependent kinases (p34^cdc2, p33^cdk2) and cyclins (cyclin B, E) are produced in Sf9 insect cells coinfected with appropriate baculoviral constructs. The cells are harvested 68-72 hrs post infection in lysis buffer for 30 min on ice and the soluble fraction is recovered by centrifugation at 14.000 g for 10 min. The protein extract is stored at −80° C.
Lysis buffer: 50mM Tris pH 7.4, 150mM NaCl, 5 mM EDTA, 20 mM NaF, 1% Tween, 1 mM DTT, 0.1 mM PMSF, leupeptine, aprotonine.
To carry out experiments on kinetics under linear conditions, the final point test system for kinase activity measurement is used. The kinase is added to reaction mixture in such a way as to obtain linear activity with respect to the concentration of enzyme and with respect to time.
Kinase activity is determined at 30° C. in the kinase buffer.
Tested compounds are usually dissolved to 100 mM solutions in DMSO, final concentration of DMSO in reaction mixture never exceeds 1%. The controls contain suitable dilutions of DMSO.
After 10 min, addition 3×SDS sample buffer stops the incubations. Phosphorylated proteins are separated electrophoretically using 10% SDS polyacrylamide gel. The measurement of kinase activity is done using digital image analysis.
The kinase activity is expressed as a percentage of maximum activity, the apparent inhibition constants are determined by graphic analysis.
Kinase buffer: 50 mM Hepes pH 7.4, 10 mM MgCl2, 5 mM EGTA, 10 mM
In series [2] the target is T1, CDK1 (p34^cdc2, cyclin B) (Homo sapiens, UniProt P06493).
T1 construct: made in house; host or cells: Sf9 insect cells (baculovirus co-infection)
T1 sequence (P06493 whole entry, species assumed): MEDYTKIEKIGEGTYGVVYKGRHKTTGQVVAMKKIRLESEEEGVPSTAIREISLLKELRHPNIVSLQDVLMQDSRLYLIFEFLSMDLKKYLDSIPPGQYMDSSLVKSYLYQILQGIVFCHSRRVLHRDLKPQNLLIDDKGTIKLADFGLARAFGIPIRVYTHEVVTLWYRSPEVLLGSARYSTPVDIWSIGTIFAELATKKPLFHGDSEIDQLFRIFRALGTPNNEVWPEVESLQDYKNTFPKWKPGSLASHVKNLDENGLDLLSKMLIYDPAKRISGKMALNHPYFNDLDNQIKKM
T1 sequence (P14635 whole entry partner, species assumed): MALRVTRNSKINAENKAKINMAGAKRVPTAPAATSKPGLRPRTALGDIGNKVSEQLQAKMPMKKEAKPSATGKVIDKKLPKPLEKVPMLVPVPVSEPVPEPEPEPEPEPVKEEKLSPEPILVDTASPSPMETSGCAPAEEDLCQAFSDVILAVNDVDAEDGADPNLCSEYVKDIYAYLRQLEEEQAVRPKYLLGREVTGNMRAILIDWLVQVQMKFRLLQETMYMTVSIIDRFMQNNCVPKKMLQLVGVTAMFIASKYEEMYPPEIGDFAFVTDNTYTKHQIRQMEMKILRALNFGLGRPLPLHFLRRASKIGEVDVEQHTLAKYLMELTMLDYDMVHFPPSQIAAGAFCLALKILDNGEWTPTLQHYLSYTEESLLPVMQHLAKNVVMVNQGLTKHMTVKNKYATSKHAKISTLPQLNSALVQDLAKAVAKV
In words: CDK inhibition assay, p34^cdc2 kinase, histone H1 phosphorylation. Type of series: biochemical. The note with it: 15 μM ATP, histone H1, 30° C. As for the experimental part:
The controls contain suitable dilutions of DMSO.
2-glycerolphosphate, 1 mM NaF, 1 mM DTT

Series [3] concerns the target CDC2a (cdc2a-MS protein, plant Cdc2-kinase) (Medicago sativa, UniProt P24923). Format: biochemical. The procedure:
(§1) Enzyme activity bound to p13^suc1-agarose was measured by phosphorylation of histone H1 substrate protein in the presence of various concentrations of (1) 7-furfurylamino-3-methylpyrazolo[4,3-d]pyrimidine, (2) 7-benzylamino-3-isopropylpyrazolo[4,3-d]pyrimidine, (3) 7-(3-chloroanilino)-3-isopropylpyrazolo[4,3-d]pyrimidine, (4) 7-(3-hydroxybenzyl)amino-3-isopropylpyrazolo[4,3-d]pyrimidine.
(§2) The quantification of radioactivity incorporated into histone H1 or myelin basic protein was undertaken using Phosphoimager (original gel images shown on FIG. 1). IC50 were calculated from dose-response curves.

Series [4] concerns K562 (human chronic myeloblastic leukemia). In words: In vitro cytotoxic activity, Calcein AM, three days. Type of series: cell-based. The note with it: read-out: K-562 IC50. As for the experimental part:
(§3) We have been using the following cell lines: HELA (human cervical carcinoma), MCF7 (human breast adenocarcinoma), NIH 3T3 (mouse fibroblasts), HOS (human osteogenic sarcoma), HL 60 (human promyelocytic leukemia), G 361 (human malignant melanoma), K562 (human chronic myeloblastic leukemia), CEM (human lymphoblastoid leukaemia). Tested drugs were added to the cell cultures in six different concentration and kept at 37° C. and 5% CO2 for three days. All cell lines were grown in DMBM medium (Gibco BRL) supplemented with 10% (v/v) fetal bovine serum and L-glutamine and maintained at 37° C. in a humidified atmosphere with 5% CO2. 10^4 cells were seeded into each well of 96 well plate, allowed to stabilize for at least 2 h and then tested compounds were added at various concentrations ranging from 200 to 0.2 μM in triplicates. Three days after drug addition Calcein AM solution (Molecular Probes) was added and let to enter the cells for 1 hour. Fluorescence of viable cells was quantified employing Fluoroskan Ascent (Microsystems).

Series [5] concerns MCF7 (human breast adenocarcinoma). Described as above. Format: cell-based. As for the experimental part:
as §3

The target in series [6] is MMK1 protein kinase (Vicia faba, UniProt A0AAV1B7B8). Nature of the series: Plant MMK1 protein kinase inhibition assay. Type of series: biochemical. The following applies: plant kinase purified from Vicia faba extracts. The procedure:
Protein extraction and purification of pant CDK by binding to p13^suc1-beads or immunopurification with an antibody specific to the cdc2a-MS protein was carried out as described previously (Bögre et al. 1997, Plant Physiol. 113, 1997, 841-852). The MMK1 protein kinase was purified with a specific antibody from Vicia faba extracts as described by Bögre et al. 1997a, Plant Cell 9, 75-83). Protein kinase activity was measured as described above in Example 19. The quantification of radioactivity incorporated into histone H1 or myelin basic protein was undertaken using Phosphoimager (original gel images shown on FIG. 1). IC50 were calculated from dose-response curves. The drugs inhibited the activity of immunopurified Vicia faba and alfalfa Cdc2-kinase. […] In contrast to the regular bipolar spindle in untreated cell, in drug-treated metaphase cells abnormally short and dense kinetochore microtubule fibres were observed. These microtubules were randomly arranged in the vicinity of the kinetochores and connected the chromosomes. Thus the chromosomes were not aligned on the metaphase plate but were arranged in a circle, with kinetochores pointing inwards and chromosome arms pointing outwards. γ-tubulin, which plays a role in microtubule nucleation, also localised to the centre of the monopolar spindle.

Series [7] relates to CDC2a (cdc2a-MS protein, plant Cdc2-kinase). Format: biochemical. The following applies: enzyme bound to p13^suc1-agarose, histone H1, various concentrations. As for the experimental part: as §1, §2
In series [8] the test system is Cytokinin-dependent tobacco callus Nicotiana tabacum L. cv. Wisconsins 38. Nature of the series: Tobacco callus bioassay for cytotoxicity (herbicidal activity). The following applies: Nicotiana tabacum, 672 h, four weeks. Type of series: cell-based. The procedure: The compounds to be tested were dissolved in dimethylsulfoxide (DMSO) and the solution brought up to 10^−3 M with distilled water. […] Cytokinin-dependent tobacco callus Nicotiana tabacum L. cv. […] Subcultivation was carried out every three weeks. Fourteen days before the bioassay, the callus tissue was transferred to the media without 6-benzylaminopurine. Compounds were tested with two different concentrations of 6-benzylaminopurine (10^−5 M and 10^−6 M). Inhibitory growth activity was determined from the increase in fresh callus weight after four weeks of cultivation. Five replicates were prepared for each concentration tested and the entire test was repeated at least twice.

Series [9] has as its system root meristem cells of V. faba. Nature of the series: Antimitotic and apoptotic effects in plant root meristem cells. Format: cell-based, Vicia faba. The following applies: high doses.
Where [10] appears, read: read-out: CDK2 IC50, 15 μM ATP, histone H1, 30° C.
Setting [11] is: read-out: IC50, growth of tobacco callus, 10^−5 M BAP, 10^−5 M 6-benzylaminopurine.
The mark [12] stands for this setting: 10^−6 M 6-benzylaminopurine, read-out: IC50, growth of tobacco callus, 10^−6 M BAP.

Like-named read-outs stand apart in the source and are kept apart here. Where only a bound is given, the exact number is not on record here.

Sequence of CDC2a (cdc2a-MS protein, plant Cdc2-kinase) (Medicago sativa, UniProt P24923) (P24923 whole entry): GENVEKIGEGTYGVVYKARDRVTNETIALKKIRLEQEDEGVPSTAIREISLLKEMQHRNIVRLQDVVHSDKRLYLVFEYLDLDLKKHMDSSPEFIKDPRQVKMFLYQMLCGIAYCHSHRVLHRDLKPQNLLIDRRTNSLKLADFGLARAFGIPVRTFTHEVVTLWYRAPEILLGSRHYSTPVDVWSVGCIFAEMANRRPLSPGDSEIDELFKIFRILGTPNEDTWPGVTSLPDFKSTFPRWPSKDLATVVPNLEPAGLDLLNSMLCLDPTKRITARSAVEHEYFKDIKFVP
Sequence of MMK1 protein kinase (A0AAV1B7B8 entry or part of it): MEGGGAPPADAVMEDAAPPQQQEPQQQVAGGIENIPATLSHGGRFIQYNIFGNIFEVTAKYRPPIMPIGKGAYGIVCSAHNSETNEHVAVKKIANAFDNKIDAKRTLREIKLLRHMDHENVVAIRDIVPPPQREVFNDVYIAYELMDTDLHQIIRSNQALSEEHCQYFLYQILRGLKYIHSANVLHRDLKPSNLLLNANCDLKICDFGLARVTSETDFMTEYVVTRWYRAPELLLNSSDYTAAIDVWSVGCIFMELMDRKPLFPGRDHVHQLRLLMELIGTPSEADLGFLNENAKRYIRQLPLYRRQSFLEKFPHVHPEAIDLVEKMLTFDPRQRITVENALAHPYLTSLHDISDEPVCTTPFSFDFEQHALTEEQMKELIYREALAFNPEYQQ

Usually IC50 stands for the concentration at which inhibition is half-maximal. On to `CC(C)c1n[nH]c2c(Nc3ccc(Cl)c(C(=O)O)c3)ncnc12` [3-carboxy-4-chloroanilino / isopropyl], for which the IC50 in series [1] (setting [10]) was 2.9 µM; in [2], 2.8 µM; in [3] it was 1.6 µM; in [4] it was 1 µM; in [5], 0.4 µM; in series [6], 1.7 µM.
Regarding `CC(C)c1n[nH]c2c(NC3CCCCC3N)ncnc12` (stereo not drawn) [(2-aminocyclohexyl)amino / isopropyl], the IC50 in [1] (setting [10]) is > 100 µM; in [2], > 100 µM; in series [3], > 100 µM; in series [4], > 167 µM; in [5], > 167 µM; in series [6] it was > 100 µM.
For the compound `CC(C)c1n[nH]c2c(NCc3cccc(O)c3)ncnc12` [3-hydroxybenzylamino / isopropyl, 7-(3-hydroxybenzylamino)-3-isopropylpyrazolo[4,3-d]pyrimidine], the IC50 in series [1] was 0.9 µM; in [2], 1.1 µM; in [4] (Homo sapiens, K562, 72 h), 132 µM; in [5] (Homo sapiens, MCF7, 72 h) it was 105 µM. The “inhibition of plant cdc2 kinase activity (FIG. 1)” value (shortened to “inhibition”) in series [7] is reported as “specific inhibition”.
Consider `Cc1n[nH]c2c(Nc3cccc(Cl)c3)ncnc12` [3-chloroanilino / methyl], for which the IC50 in series [1] (setting [10]) was 16 µM; in [2], 14 µM; in series [3], 10 µM; in series [4] it was 35 µM; in series [5] it was 24 µM; in series [6] it was 9.6 µM.
Broadly, the melting point is the temperature of the solid-liquid transition. The compound `CC(C)c1n[nH]c2c(NCc3ccccc3)ncnc12` [benzylamino / isopropyl, 7-benzylamino-3-isopropylpyrazolo[4,3-d]pyrimidine] yielded a melting point of 153 to 154 °C. In series [1], the IC50 is 0.5 µM. The same compound gave an IC50 in series [2] of 1.3 µM. The “inhibition” value in [7] is “specific inhibition”. Also, the IC50 in [4] (Homo sapiens, K562, 72 h) was 72 µM. In series [5] (Homo sapiens, MCF7, 72 h), the IC50 is 55 µM. In addition, the 50% inhibitory concentration (IC50) in series [8] (setting [11]) turned out to be 24 µM. Moreover, the IC50 in [8] (setting [12]) stood at 6.5 µM.
Take `CC[C@H](CO)Nc1nc(NCc2ccccc2)c2ncn(C(C)C)c2n1` [roscovitine]: in series [9], the “apoptosis in plant cells” value is recorded as “induced apoptosis”.
Turning to `CC(C)c1n[nH]c2c(Nc3cccc(Cl)c3)ncnc12` [3-chloroanilino / isopropyl, 7-(3-chloroanilino)-3-isopropylpyrazolo[4,3-d]pyrimidine], the IC50 in series [1] is 0.8 µM; in series [2], 2 µM; in series [4] (Homo sapiens, K562, 72 h), 12 µM; in [5] (Homo sapiens, MCF7, 72 h) it was 9 µM; in [8] (setting [11]), 34 µM; in [8] (setting [12]) it was 8.2 µM. In [7], the “inhibition” value is on record as “specific inhibition”.
Take `Cc1n[nH]c2c(Nc3ccc(N)c(Cl)c3)ncnc12` [3-chloro-4-aminoanilino / methyl]: the IC50 worked out at 28 µM in series [1] (setting [10]), 26 µM in series [2], 30 µM in [3] and 32 µM in series [6].
Regarding `Cc1n[nH]c2c(NCc3ccco3)ncnc12` [furfurylamino / methyl, 7-furfurylamino-3-methylpyrazolo[4,3-d]pyrimidine], the IC50 in series [1] is 16 µM; in series [2], 18 µM; in [4] (Homo sapiens, K562, 72 h) it was > 167 µM; in series [5] (Homo sapiens, MCF7, 72 h), 142 µM. Moreover, the “inhibition” value in series [7] is given as “specific inhibition”.
